Test [1] addresses T1, Thyroid hormone receptor alpha (Homo sapiens, UniProt P10827).
T1 sequence (P10827 whole entry): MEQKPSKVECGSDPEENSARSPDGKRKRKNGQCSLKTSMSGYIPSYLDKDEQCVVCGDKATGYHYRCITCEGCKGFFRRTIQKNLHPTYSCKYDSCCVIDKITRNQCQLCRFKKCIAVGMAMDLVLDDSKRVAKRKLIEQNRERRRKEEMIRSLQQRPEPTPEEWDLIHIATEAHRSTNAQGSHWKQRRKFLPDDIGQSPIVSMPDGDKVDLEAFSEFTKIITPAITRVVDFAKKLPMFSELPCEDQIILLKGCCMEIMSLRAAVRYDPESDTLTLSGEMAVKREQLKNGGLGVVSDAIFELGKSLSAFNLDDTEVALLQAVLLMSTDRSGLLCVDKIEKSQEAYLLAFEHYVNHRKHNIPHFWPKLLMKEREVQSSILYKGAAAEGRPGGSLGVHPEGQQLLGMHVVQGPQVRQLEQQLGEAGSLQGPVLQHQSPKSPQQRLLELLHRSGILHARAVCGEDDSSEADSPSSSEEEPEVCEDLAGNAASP
Description: Efficacy against TRAF-alpha-1 reporter cells

Test [2] has as its target T2, Thyroid hormone receptor beta (Homo sapiens, UniProt P10828).
T2 sequence (P10828 whole entry): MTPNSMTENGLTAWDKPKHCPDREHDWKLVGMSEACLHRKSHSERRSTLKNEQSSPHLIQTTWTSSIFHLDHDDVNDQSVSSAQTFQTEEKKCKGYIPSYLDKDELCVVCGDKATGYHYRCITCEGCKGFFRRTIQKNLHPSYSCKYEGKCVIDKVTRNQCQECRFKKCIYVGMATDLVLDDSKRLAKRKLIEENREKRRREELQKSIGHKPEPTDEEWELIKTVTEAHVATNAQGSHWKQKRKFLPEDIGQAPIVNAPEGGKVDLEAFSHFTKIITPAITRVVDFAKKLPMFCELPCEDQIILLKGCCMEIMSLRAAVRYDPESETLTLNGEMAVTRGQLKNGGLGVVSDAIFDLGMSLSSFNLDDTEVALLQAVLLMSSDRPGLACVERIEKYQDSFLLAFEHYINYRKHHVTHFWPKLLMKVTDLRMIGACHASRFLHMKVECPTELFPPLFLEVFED
Description: Efficacy against TRAF-beta-1 reporter cells

For test [3], the target named is T1, Thyroid hormone receptor alpha. The source holds these as a separate data set.
Description: Inhibition of human TR-alpha-1 by radioligand binding assay
Test [4] addresses T2, Thyroid hormone receptor beta. This is another data set of the same source.
Description: Inhibition of human TR-beta-1 by radioligand binding assay

Each structure is given as a SMILES string.

By EC50 is commonly meant the concentration needed to bring the measured effect to its halfway point. A high value points to a less potent agent. One may read the IC50 as the concentration at which inhibition is half-maximal. Lower therefore signals inhibition by little substance. Turning to `Cc1cc2nc(C(=O)O)ccc2c(C)c1Oc1ccc(O)c(C(C)C)c1`, the 50% effective concentration (EC50) in test [1] was determined as 0.083 µM; in test [2], 0.049 µM. For the same compound, the IC50 in test [3] was 0.2 µM; in test [4] it was 0.015 µM.
Take `CC(C)c1cc(Oc2c(Cl)cc3[nH]c(C(=O)O)cc3c2Cl)ccc1O`: the EC50 in test [1] turned out to be 0.01 µM. For the same compound, in test [3], the IC50 stood at 0.0014 µM.
Take `CC(C)c1cc(Oc2c(Br)cc3c(c2Br)CC(C(=O)O)C3)ccc1O` (stereo not given): the EC50 in test [1] is 0.0041 µM; in test [2] it was 0.0043 µM. The IC50 in test [3] is 0.038 µM; in test [4], 0.0085 µM.
For `CC(C)c1cc(Oc2c(Cl)cc3[nH]c(C(=O)O)cc(=O)c3c2Cl)ccc1O`, the 50% inhibitory concentration (IC50) is 3.5 µM in test [3] and 0.87 µM in test [4].
The matching figures for `Cc1cc2[nH]c(C(=O)O)cc(=O)c2c(C)c1Oc1ccc(O)c(C(C)C)c1`: 0.62 µM and 0.24 µM.
As for `CC(C)c1cc(Oc2c(Br)cc3nc(C(=O)O)cc(O)c3c2Br)ccc1O`, the IC50 in test [3] is 0.25 µM; in test [4] it was 0.051 µM.
On to `CC(C)c1cc(Oc2c(Br)cc3[nH]c(C(=O)O)cc3c2Br)ccc1O`, for which the EC50 was found to be 0.01 µM in test [1] and 0.0042 µM in test [2]. For the same compound, the IC50 worked out at 0.0025 µM in test [3] and 0.00028 µM in test [4].

Values taken from ChEMBL document CHEMBL1138993, “Thyroid receptor ligands. Part 5: novel bicyclic agonist ligands selective for the thyroid hormone receptor beta” (Bioorg Med Chem Lett, 2006).
